Reference: patent US20120190669A1, “OXINDOLE COMPOUNDS” (CYLENE PHARMACEUTICALS, INC., priority 2008, published 2012)
pIC50: −log10 of the molar value. Where two headings read alike, the source gives them in different places.

Target: recombinant PIM-1 (Homo sapiens, UniProt P11309)
Test: PIM-1 kinase assay (radiometric, 15 uM ATP, DMSO 4%)
Type: biochemical
Description: The following procedure was used to assay the PIM-1 kinase activity of compounds of the invention. Other methods for assaying PIM-1 and other PIM kinases, as well as methods to assay for activity against the various kinases in FIG. 1, are known in the art.
(specific activity approx. 500 cpm/pmol), DMSO 4% and test inhibitor compound at the required concentration. The reaction was initiated by the addition of the Magnesium ATP mixture. After 40 min incubation at 23° C., the reactions were quenched by the addition of 100 ul 0.75% Phosphoric acid, and the labeled peptide collected by filtration through a phosphocellulose filter plate. The plate was washed 4 times with 0.075% phosphoric acid (100 ul per well) and then, after the addition of scintillation fluid (20 ul per well), the counts were measured by a scintillation counter.

[1] = Table 1, % inhibition at the high dose (2 micromolar) in a single screening assay, 15 μM ATP
[2] = Table 1, given for compounds with IC50 at or below 2 micromolar, 15 uM ATP, read-out: PIM-1 IC50

Chain of recombinant PIM-1 (P11309 whole entry): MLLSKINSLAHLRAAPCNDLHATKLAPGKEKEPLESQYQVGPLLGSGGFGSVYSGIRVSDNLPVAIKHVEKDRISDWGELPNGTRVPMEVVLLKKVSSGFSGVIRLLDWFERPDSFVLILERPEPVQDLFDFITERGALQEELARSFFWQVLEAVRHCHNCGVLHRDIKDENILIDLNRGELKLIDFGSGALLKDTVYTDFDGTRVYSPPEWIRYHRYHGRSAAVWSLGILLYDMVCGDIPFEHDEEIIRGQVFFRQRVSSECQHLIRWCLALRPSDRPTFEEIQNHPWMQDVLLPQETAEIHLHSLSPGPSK

## O=C1Nc2ccc(C(=O)O)cc2/C1=C\c1ccc(-c2cccc(C(=O)NCCN3CCCC3)c2)o1 [Compound 6]
[1]
  inhibition at 2 µM: 32.3%

## O=C1Nc2ccccc2/C1=C\c1ccc(-c2cccc(C(=O)Nc3nccs3)c2)o1 [Compound 167]
[1]
  inhibition at 2 µM: -3.02%

## O=C1Nc2ccc(F)cc2/C1=C\c1ccc(-c2cccc(C(=O)NC3CC3)c2)o1 [Compound 20]
[1]
  inhibition at 2 µM: 46%

## CN1CCC(N(C)C(=O)c2ccc(-c3ccc(/C=C4/C(=O)Nc5ccc(F)cc54)o3)cc2)C1 (stereo not drawn) [Compound 83]
[1]
  inhibition at 2 µM: 54.8%
[2]
  pIC50: > 6.00

## O=C1Nc2c(Cl)cccc2/C1=C\c1ccc(-c2cccc(C(=O)NCCN3CCCC3)c2)o1 [Compound 41]
[1]
  inhibition at 2 µM: 19%

## CN1CCCCC1CNC(=O)c1ccc(Cl)c(-c2ccc(/C=C3/C(=O)Nc4ccc(F)cc43)o2)c1 (stereo not drawn) [Compound 102]
[2]
  pIC50: > 5.70

## O=C1Nc2ccc(Cl)cc2/C1=C\c1ccc(-c2cccc(C(=O)NCCCN3CCOCC3)c2)o1 [Compound 124]
[2]
  pIC50: > 6.00

## C/C(=C1\C(=O)Nc2ccc(Cl)cc21)c1ccc(-c2ccc(C(=O)N3CCCN(C)CC3)cc2)o1 [Compound 195]
[2]
  pIC50: > 6.00

## CCCC(=O)Nc1cc(C(=O)NCCN2CCCC2)ccc1-c1ccc(/C=C2/C(=O)Nc3ccccc32)o1 [Compound 169]
[1]
  inhibition at 2 µM: -29.9%

## CN1CCCC(NC(=O)c2ccc(Cl)c(-c3ccc(/C=C4/C(=O)Nc5ccc(F)cc54)o3)c2)C1 (stereo not drawn) [Compound 101]
[2]
  pIC50: > 5.70

## O=C1Nc2ccccc2/C1=C\c1ccc(-c2cccc(CO)c2)o1 [Compound 163]
[2]
  pIC50: > 5.70

## C/C(=C1\C(=O)Nc2ccccc21)c1ccc(-c2cccc(C(=O)NCCN3CCCC3)c2)o1 [Compound 156]
[2]
  pIC50: > 5.70

## CN(C)C1CCN(C(=O)c2ccccc2-c2ccc(/C=C3/C(=O)Nc4ccccc43)o2)CC1 [Compound 61]
[1]
  inhibition at 2 µM: -2.65%

## O=C1Nc2ccc(Cl)cc2/C1=C\c1ccc(-c2cccc(C(=O)NCC(O)c3ccccn3)c2)o1 (stereo not drawn) [Compound 188]
[2]
  pIC50: > 6.00

## O=C1Nc2ccc(Cl)cc2/C1=C\c1ccc(-c2cccc(C(=O)NCc3cccnc3)c2)o1 [Compound 116]
[2]
  pIC50: > 6.00

## O=C1Nc2ccc([N+](=O)[O-])cc2/C1=C\c1ccc(-c2cccc(C(=O)NCCN3CCCC3)c2)o1 [Compound 52]
[1]
  inhibition at 2 µM: 20.4%

## CN1CCCN(C(=O)c2cncc(-c3ccc(/C=C4/C(=O)Nc5ccc(Cl)cc54)o3)c2)CC1 [Compound 154]
[2]
  pIC50: > 6.00

## CCC(=O)Nc1cc(C(=O)NCCN2CCCC2)ccc1-c1ccc(/C=C2/C(=O)Nc3ccccc32)o1 [Compound 168]
  inhibition at 2 µM: -14.9%

## O=C1Nc2ccc(Cl)cc2/C1=C\c1ccc(-c2cccc(C(=O)NCC(O)c3cccnc3)c2)o1 (stereo not drawn) [Compound 189]
[2]
  pIC50: > 6.00

## O=C1CN(C(=O)c2cccc(-c3ccc(/C=C4/C(=O)Nc5ccccc54)o3)c2)CCN1 [Compound 23]
[1]
  inhibition at 2 µM: -14.2%

## O=C1Nc2ccccc2/C1=C\c1ccc(-c2ccc(Cl)c(C(=O)NCCC3CCCN3)c2)o1 (stereo not drawn) [Compound 28]
[1]
  inhibition at 2 µM: -37.6%

## O=C1Nc2ccccc2/C1=C\c1ccc(-c2cc(C(=O)NCCN3CCCC3)ccc2F)o1 [Compound 78]
[1]
  inhibition at 2 µM: 88.3%
[2]
  pIC50: > 6.00

## O=C1Nc2cc(F)ccc2/C1=C\c1ccc(-c2cccc(C(=O)NCCN3CCCC3)c2)o1 [Compound 39]
[1]
  inhibition at 2 µM: 21%

## CN(C)c1ccc(CNC(=O)c2cccc(-c3ccc(/C=C4/C(=O)Nc5ccc(Cl)cc54)o3)c2)cc1 [Compound 177]
[1]
  inhibition at 2 µM: 10.9%

## COCCNC(=O)c1cccc(-c2ccc(/C=C3/C(=O)Nc4ccc(F)cc43)o2)c1 [Compound 17]
[1]
  inhibition at 2 µM: 49.6%

## O=C1Nc2ccccc2/C1=C\c1ccc(-c2ccccc2O)o1 [Compound 162]
[2]
  pIC50: > 5.70

## O=C1Nc2ccc(F)cc2/C1=C\c1ccc(-c2cccc(C(=O)NCc3ccncc3)c2)o1 [Compound 21]
[2]
  pIC50: > 5.70

## Cc1cc(-c2cccc(C(=O)NCCN3CCCC3)c2)oc1/C=C1/C(=O)Nc2ccccc21 [Compound 157]
[2]
  pIC50: > 5.70

## CN(C)C1CCN(C(=O)c2ccc(-c3ccc(/C=C4/C(=O)Nc5ccccc54)o3)cn2)CC1 [Compound 138]
[1]
  inhibition at 2 µM: 30.5%

## O=C(CCN1CCCC1)Nc1cccc(-c2ccc(/C=C3/C(=O)Nc4ccccc43)o2)c1 [Compound 184]
[2]
  pIC50: > 6.00

## CCN(CC)C(=O)c1cccc(-c2ccc(/C=C3/C(=O)Nc4ccc(Cl)cc43)o2)c1 [Compound 173]
[1]
  inhibition at 2 µM: 29.2%

## CN(C)C1CCN(C(=O)c2ccc(Cl)c(-c3ccc(/C=C4/C(=O)Nc5ccc(F)cc54)o3)c2)CC1 [Compound 103]
[2]
  pIC50: > 5.70

## CCN(CC)CCNC(=O)c1cccc(-c2coc(/C=C3/C(=O)Nc4ccc(F)cc43)c2)c1 [Compound 94]
[1]
  inhibition at 2 µM: 11.5%

## O=C1Nc2ccc(F)cc2/C1=C\c1ccc(-c2cccc(C(=O)O)c2)o1 [Compound 10]
[2]
  pIC50: > 5.70

## O=C1Nc2ccc(Cl)cc2/C1=C\c1ccc(-c2cccc(C(=O)NCCc3ccc(O)cc3)c2)o1 [Compound 179]
[1]
  inhibition at 2 µM: 18.4%

## COC(=O)c1ccc(-c2ccc(/C=C3/C(=O)Nc4ccccc43)o2)c(N)c1 [Compound 143]
[1]
  inhibition at 2 µM: 30.6%

## O=C1Nc2ccc(Cl)cc2/C1=C\c1ccc(-c2cccc(C(=O)NCc3ccccn3)c2)o1 [Compound 117]
[1]
  inhibition at 2 µM: 19.2%

## O=C1Nc2ccc(F)cc2/C1=C\c1ccc(-c2ccccc2C(=O)NCCN2CCCC2)o1 [Compound 62]
[1]
  inhibition at 2 µM: 0.28%

## O=C1Nc2ccc(F)cc2/C1=C\c1cc(-c2cccc(C(=O)NCCN3CCCC3)c2)co1 [Compound 88]
[1]
  inhibition at 2 µM: 9%

## O=C1Nc2ccccc2/C1=C\c1ccc(-c2ccc(C(=O)NCCCn3ccnc3)c(F)c2)o1 [Compound 161]
[1]
  inhibition at 2 µM: 28.4%

## O=C1Nc2ccc(F)cc2/C1=C\c1ccc(-c2ccc(Cl)c(C(=O)NCCN3CCCC3)c2)o1 [Compound 73]
[1]
  inhibition at 2 µM: 20.9%

## Cn1cncc1CNC(=O)c1ccc(-c2ccc(/C=C3/C(=O)Nc4ccccc43)o2)cc1 [Compound 36]
[2]
  pIC50: > 6.00

## O=C1Nc2ccc(Cl)cc2/C1=C\c1ccc(-c2cccc(C(=O)NCC(O)c3ccncc3)c2)o1 (stereo not drawn) [Compound 190]
[2]
  pIC50: > 6.00

## CN1CCCCC1CNC(=O)c1ccccc1-c1ccc(/C=C2/C(=O)Nc3ccc(F)cc32)o1 (stereo not drawn) [Compound 66]
[1]
  inhibition at 2 µM: 4.53%

## O=C1Nc2ccc(F)cc2/C1=C\c1cc(-c2cccc(C(=O)NCc3ccncc3)c2)co1 [Compound 95]
[1]
  inhibition at 2 µM: -19.1%

## CN1CCCN(C(=O)c2cccc(-c3ccc(CC4C(=O)Nc5ccc(Cl)cc54)o3)c2)CC1 (stereo not drawn) [Compound 197]
[2]
  pIC50: > 6.00

## CON(C)C(=O)c1cccc(-c2ccc(/C=C3/C(=O)Nc4ccc(Cl)cc43)o2)c1 [Compound 176]
[1]
  inhibition at 2 µM: -59.6%

## CCN1CCCC1CNC(=O)c1ccc(Cl)c(-c2ccc(/C=C3/C(=O)Nc4ccc(F)cc43)o2)c1 (stereo not drawn) [Compound 100]
[2]
  pIC50: > 6.00

## O=C1Nc2ccccc2/C1=C\c1ccc(-c2ccccc2C(=O)O)o1 [Compound 31]
[1]
  inhibition at 2 µM: 11.4%

## CCN(CC)CCNC(=O)c1cncc(-c2ccc(/C=C3/C(=O)Nc4ccc(Cl)cc43)o2)c1 [Compound 152]
[2]
  pIC50: > 6.00

## CN1CCCN(C(=O)c2cccc(-c3ccc(/C(=C4/C(=O)Nc5ccc(Cl)cc54)C4CC4)o3)c2)CC1
Table 3, DMSO 4%, read-out: PIM1: IC50 (DMSO 4%)
  pIC50: < 5.96

## CN1CCCN(C(=O)c2ccc(-c3ccc(/C=C4/C(=O)Nc5ccccc54)o3)cc2F)CC1 [Compound 160]
[1]
  inhibition at 2 µM: -17.1%

## CC1CCCN(CCCNC(=O)c2cccc(-c3ccc(/C=C4/C(=O)Nc5ccc(Cl)cc54)o3)c2)C1 (stereo not drawn) [Compound 122]
[1]
  inhibition at 2 µM: 39.3%

## CN(C)CCNC(=O)c1cccc(-c2ccc(/C=C3/C(=O)Nc4ccc(Cl)cc43)o2)c1 [Compound 118]
[2]
  pIC50: > 6.00

## CN(C)C1CCN(C(=O)c2cccc(-c3ccc(/C=C4/C(=O)Nc5ccc(Cl)cc54)o3)c2)CC1 [Compound 113]
[1]
  inhibition at 2 µM: 38.1%

## CN(C)C1CCN(C(=O)c2ccc(-c3ccc(/C=C4/C(=O)Nc5ccc(F)cc54)o3)cc2)CC1 [Compound 87]
[1]
  inhibition at 2 µM: 51.9%
[2]
  pIC50: > 5.70

## CN1CCCCC1CNC(=O)c1cccc(-c2ccc(/C=C3/C(=O)Nc4ccc([N+](=O)[O-])cc43)o2)c1 (stereo not drawn) [Compound 53]
[1]
  inhibition at 2 µM: 23.5%

## O=C1Nc2c(cccc2C(F)(F)F)/C1=C\c1ccc(-c2cccc(C(=O)NCCN3CCCC3)c2)o1 [Compound 50]
[1]
  inhibition at 2 µM: 8.16%

## CCN1CCCC1CNC(=O)c1ccc(-c2ccc(/C=C3/C(=O)Nc4ccc(F)cc43)o2)cc1 (stereo not drawn) [Compound 84]
[1]
  inhibition at 2 µM: 91.3%
[2]
  pIC50: > 6.00

## O=C1Nc2ccccc2/C1=C\c1ccc(-c2ccc3ccc(NCCN4CCCC4)nc3c2)o1 [Compound 155]
[2]
  pIC50: > 6.00

## CN1CCCCC1CNC(=O)c1cccc(-c2ccc(/C=C3/C(=O)Nc4c3cccc4C(F)(F)F)o2)c1 (stereo not drawn) [Compound 51]
[1]
  inhibition at 2 µM: 2.32%

## Cc1cc(-c2cccc(C(=O)NCc3cncn3C)c2)oc1/C=C1/C(=O)Nc2ccccc21 [Compound 158]
[2]
  pIC50: > 5.70

## CN1CCC(N(C)C(=O)c2ccccc2-c2ccc(/C=C3/C(=O)Nc4ccc(F)cc43)o2)C1 (stereo not drawn) [Compound 64]
[1]
  inhibition at 2 µM: 18.2%

## O=C1Nc2ccccc2/C1=C\c1ccc(-c2ccc(CO)cc2)o1 [Compound 164]
[2]
  pIC50: > 5.70

## O=C1Nc2ccc(Cl)cc2/C1=C\c1ccc(-c2cccc(C(=O)NCCN(CCO)CCO)c2)o1 [Compound 193]
[2]
  pIC50: > 6.00

## CN1CCCC1N(C)C(=O)c1ccc(-c2ccc(/C=C3/C(=O)Nc4ccccc43)o2)cc1 (stereo not drawn) [Compound 33]
[2]
  pIC50: > 6.00

## O=C1Nc2ccc(Cl)cc2/C1=C\c1ccc(-c2cccc(C(=O)NCCCn3ccnc3)c2)o1 [Compound 123]
[2]
  pIC50: > 6.00

## CN1CCC(N(C)C(=O)c2cc(-c3ccc(/C=C4/C(=O)Nc5ccc(F)cc54)o3)ccc2Cl)C1 (stereo not drawn) [Compound 72]
[1]
  inhibition at 2 µM: 37.1%
